Read-outs that look alike come from different tables or passages of the source.
How the values were obtained:
[1] = test system: gastric cancer cell line H-111-TC; experiment: Cell growth inhibitory activity, H-111-TC; type: cell-based; settings: Table 6
Description: (§1) The cell growth inhibitory activity against a colorectal cancer cell line HCT116 was measured. As an index of cell growth inhibitory activity, a concentration at which cell growth was inhibited by 50% as compared with a control (IC50) was used. The method is as follows. HCT116 was added to a 6-well plate by 5×10^4, compounds having various concentrations were added after 24 hours, and the number of cells was counted after 72 hours of culture. As the control, DMSO was used in an amount equal to the amount added in accordance with the addition concentration of the highest-concentration compound. The number of cells at each concentration relative to the control was expressed as a percentage. In Table 3, the turbidities of the compounds are also indicated.
The cell growth inhibitory activity (IC50) of each of curcumin, GO-Y199, and GO-Y206 against the colorectal cancer cell lines DLD-1 and HCT116 and the gastric cancer cell lines KATO III and H-111-TC was measured. The method is as described above. FIG. 8 indicates the results of cell growth inhibitory activity of these compounds against various cancer cell lines.

[2] = test system: cutaneous T-cell lymphoma cell line HUT78; experiment: Cell growth inhibitory activity, HUT78; type: cell-based; settings: Homo sapiens, HuT78; Table 10
Description: [The source words this procedure for another cell line and reports this cell line under the same test.] as §1, with “percentage.” for “percentage. In Table 3, the turbidities of the compounds are also indicated.”
(§2) The method is as described above.

[3] = test system: pancreatic cancer cell line ASPC-1; experiment: Cell growth inhibitory activity, ASPC-1; type: cell-based; settings: Homo sapiens, ASPC1; Table 7
Description: [The source words this procedure for another cell line and reports this cell line under the same test.] as §1, with “percentage.” for “percentage. In Table 3, the turbidities of the compounds are also indicated.”
as §2

[4] = test system: cutaneous T-cell lymphoma cell line HH; experiment: Cell growth inhibitory activity, HH; type: cell-based; settings: T-cell; Table 10
Description: [The source words this procedure for another cell line and reports this cell line under the same test.] as §1, with “percentage.” for “percentage. In Table 3, the turbidities of the compounds are also indicated.”
as §2

[5] = test system: gastric cancer cell line KATO III; experiment: Cell growth inhibitory activity, KATO III; type: cell-based; settings: Homo sapiens, KATO III; Table 6; read-out: IC50 (μM) KATO III
Description: as §1, with “percentage.” for “percentage. In Table 3, the turbidities of the compounds are also indicated.”
as §2
(§3) The cell growth inhibitory activity (IC50) of each of curcumin, GO-Y199, and GO-Y206 against the colorectal cancer cell lines DLD-1 and HCT116 and the gastric cancer cell lines KATO III and H-111-TC was measured. The method is as described above.

[6] = test system: vascular endothelial cells HUVEC-R resistant to Ki8751; experiment: Angiogenesis inhibitory activity, HUVEC-R; type: cell-based; settings: Endothelial cell; Table 11; number of cells after 72 hours
Description: HUVEC-R was cultured in the presence of each compound using an EGMTM-2 Bullet Kit (Takara Bio Inc., Otsu, Japan), and the number of cells was measured after 72 hours. In addition, IC50 was determined from the results.

[7] = test system: malignant pleural mesothelioma cell line MSTO211H; experiment: Cell growth inhibitory activity, MSTO211H; type: cell-based; settings: Homo sapiens, MSTO-211H; Table 8
Description: as §1
(§4) GO-Y198, GO-Y199, and GO-Y200 against malignant pleural mesothelioma cell lines NCI-H226 and MSTO211H was measured. The method is as described above. For comparison, the IC50 of cisplatin (CDDP), a cytocidal anticancer agent, is also indicated.

[8] = test system: gastric cancer cell line GCIY; experiment: Cell growth inhibitory activity, GCIY; type: cell-based; settings: Homo sapiens, GCIY; Table 4; 72 hours
Description: [The source words this procedure for another cell line and reports this cell line under the same test.] as §1, with “percentage.” for “percentage. In Table 3, the turbidities of the compounds are also indicated.”
as §2

[9] = test system: pancreatic cancer cell line Panc-1; experiment: Cell growth inhibitory activity, Panc-1; type: cell-based; settings: Homo sapiens, PANC-1; Table 7
Description: [The source words this procedure for another cell line and reports this cell line under the same test.] as §1, with “percentage.” for “percentage. In Table 3, the turbidities of the compounds are also indicated.”
as §2

Turbidity measurement = type: physicochemical
Description: The turbidity of various compounds was measured. The method is as follows. […] Curcumin was cloudy while GO-Y199 was clear. The solubility was measured with a turbidimeter (WZB-170 Portable Turbidimeter available from REX). The turbidity of the compound was corrected for concentration.
Subsequently, GO-Y206 and curcumin were adjusted to final concentrations of 1.25 μM and 5.00 μM, respectively, and their turbidities were measured.

[10] = test system: malignant pleural mesothelioma cell line NCI-H226; experiment: Cell growth inhibitory activity, NCI-H226; type: cell-based; settings: Homo sapiens, NCI-H226; Table 8
Description: as §1, §4

[11] = test system: gastric cancer cell line SH-10-TC; experiment: Cell growth inhibitory activity, SH-10-TC; type: cell-based; settings: SH-10-TC; Table 4; 72 hours
Description: [The source words this procedure for another cell line and reports this cell line under the same test.] as §1, with “percentage.” for “percentage. In Table 3, the turbidities of the compounds are also indicated.”
as §2

[12] = test system: colorectal cancer cell line HCT116; experiment: Cell growth inhibitory activity, HCT116; type: cell-based; settings: Homo sapiens
Description: as §1, with “percentage.” for “percentage. In Table 3, the turbidities of the compounds are also indicated.”
as §2, §3

[13] = test system: colorectal cancer cell line DLD-1; experiment: Cell growth inhibitory activity, DLD-1; type: cell-based; settings: Homo sapiens, DLD-1
Description: as §1, with “percentage.” for “percentage. In Table 3, the turbidities of the compounds are also indicated.”
as §2, §3

[14] = test system: malignant melanoma cell line G361; experiment: Cell growth inhibitory activity, G361; type: cell-based; settings: Homo sapiens, G-361; Table 9
Description: [The source words this procedure for another cell line and reports this cell line under the same test.] as §1, with “percentage.” for “percentage. In Table 3, the turbidities of the compounds are also indicated.”
as §2

COc1cc(/C=C/C(=O)CC(=O)/C=C/c2ccc(O)c(OC)c2)ccc1O [curcumin, reference compound]
IC50 [1]: > 50 µM | IC50 [2]: 9.01 µM | IC50 [3]: 18.5 µM | IC50 [4]: 18.1 µM | IC50 [5]: 11 µM | IC50 [6]: 11.9 µM | IC50 [7]: 33.7 µM | IC50 [8]: 8.66 µM | IC50 [9]: 29.2 µM | Turbidity/μm (Turbidity measurement; Table 1, average turbidity corrected for final concentration (1.7-170 μm, per compound)): 0.29 NTU/μM | Relative Value (turbidity) (Turbidity measurement; Table 1, turbidity/μm relative to curcumin = 1): 1 | Turbidity (NTU) (Turbidity measurement; Table 2, final conc. 1.25 μM): 4.96 NTU | Turbidity/μm (Turbidity measurement; Table 2, final conc. 1.25 μM): 3.968 NTU/μM | Turbidity (NTU) (Turbidity measurement; Table 2, final conc. 5.0 μM): 29.0 NTU | Turbidity/μm (Turbidity measurement; Table 2, final conc. 5.0 μM): 5.8 NTU/μM | Relative Value (turbidity) (Turbidity measurement; Table 2, value in parentheses, relative to curcumin = 1.00): (1.00) | Turbidity (Relative Value) (Turbidity measurement; Table 3, relative to curcumin = 1): 1 | appearance of solution (Turbidity measurement; final concentration 50 μM in distilled water or DMEM with 10% fetal bovine serum, from DMSO): cloudy | IC50 [10]: 15.1 µM | IC50 [11]: 8.07 µM | IC50 ([12]; HCT-116, read-out: IC50 HCT-116, Table 4, 72 hours): 16 µM | IC50 ([12]; HCT-116, Table 3, HCT116, cell count after 72 hours of culture vs DMSO control, read-out: IC50): 16 µM | IC50 ([12]; HCT-116, Table 6, read-out: IC50 (μM) HCT116): 7.08 µM | IC50 ([13]; Table 4, 72 hours, read-out: IC50 DLD-1): 18.7 µM | IC50 ([13]; Table 6, read-out: IC50 (μM) DLD-1): 44.8 µM | IC50 [14]: 16.8 µM

Reference: patent US20240158430A1, “NOVEL COMPOUND OR SALT THEREOF, AND ANTITUMOR ACTIVATOR CONTAINING SAME AS ACTIVE INGREDIENT” (AKITA UNIVERSITY, priority 2021, published 2024)
